We go through 13 compounds from PubChem BioAssay (NCI).

Molecules are shown by their SMILES.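 48-hour exposure; five concentrations; linearly interpolated endpoints. TGI denotes the concentration required for complete inhibition of growth.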

Some test systems named below: K-562 leukemia; HCT-15 colon; RXF 393 renal; OVCAR-3 ovarian; SW-620 colon; NCI-H522 lung; CAKI-1 renal; TK-10 renal; MDA-MB-435; T-47D breast.
Assay in all cases: NCI anticancer screen, dose series, 48 h

On to `NC1(C(=O)O)CCCC1`, for which the TGI in the experiment on K-562 leukemia was > 625 µM; in the experiment with HCT-15 colon, > 625 µM; in the experiment on RXF 393 renal it was > 625 µM; in the experiment on OVCAR-3 ovarian, > 62.5 µM; with SW-620 colon, > 625 µM; with NCI-H522 lung, > 625 µM. The TGI in the experiment on CAKI-1 renal was > 625 µM.

Turning to `CCN(CC)CCCC(C)NC(=O)c1ccc2c(c1)C(=O)c1ccccc1C2=O` (stereo not given), the TGI was 48.4 µM in the experiment on K-562 leukemia; 40 µM with HCT-15 colon; 42.8 µM with RXF 393 renal; 32.2 µM with OVCAR-3 ovarian; 43.1 µM in the experiment on SW-620 colon; 37.4 µM with NCI-H522 lung. The TGI with CAKI-1 renal worked out at 79.3 µM; in the experiment with TK-10 renal it was 66.5 µM.

Take `CSCCC(NC(=O)OCc1ccccc1)NC(=O)OCc1ccccc1`: the TGI with K-562 leukemia, in the experiment on HCT-15 colon, in the experiment with MDA-MB-435, in the experiment with OVCAR-3 ovarian, in the experiment with SW-620 colon and with NCI-H522 lung was > 100 µM in each case. The TGI in the experiment on CAKI-1 renal, in the experiment on T-47D breast and with TK-10 renal was > 100 µM throughout.

On to `O=C1c2ccccc2C(=O)c2c(O)ccc(O)c21`, for which the TGI is > 100 µM in the experiment on K-562 leukemia; > 100 µM with HCT-15 colon; > 100 µM with RXF 393 renal; 94.1 µM in the experiment with OVCAR-3 ovarian; > 100 µM with SW-620 colon; > 100 µM in the experiment on NCI-H522 lung. Moreover, the TGI in the experiment with CAKI-1 renal and in the experiment with TK-10 renal was > 100 µM in each case.

For the compound `CC(Cc1ccccc1)NC1=NCCO1` (stereo not given), the TGI in the experiment on HCT-15 colon, with RXF 393 renal, in the experiment with SW-620 colon, in the experiment with NCI-H522 lung, in the experiment on CAKI-1 renal and in the experiment with T-47D breast was > 100 µM throughout.

Turning to `COc1ccccc1NC(=O)O/N=C(/Cl)C(C)C`, the TGI came to 10.9 µM with K-562 leukemia; 27 µM in the experiment with HCT-15 colon; 28.4 µM in the experiment with RXF 393 renal; 16.3 µM in the experiment with OVCAR-3 ovarian; 3.39 µM in the experiment on SW-620 colon; 3.37 µM in the experiment with NCI-H522 lung. The TGI in the experiment on T-47D breast was 59.2 µM; in the experiment with TK-10 renal, 26.5 µM.

For the compound `CCCCCCC(C)OC(=O)/C=C(\CC(=O)OC(C)CCCCCC)C(=O)OC(C)CCCCCC` (stereo not given), the TGI with HCT-15 colon, in the experiment with RXF 393 renal, in the experiment on OVCAR-3 ovarian, with SW-620 colon, in the experiment with NCI-H522 lung and in the experiment with CAKI-1 renal was > 100 µM throughout. Besides, the TGI with TK-10 renal was > 100 µM.

Regarding `C(=C\c1cc(-c2ccc3ccccc3n2)nc2ccc3ccccc3c12)/c1ccc2ccccc2n1`, the TGI in the experiment with K-562 leukemia, in the experiment on HCT-15 colon, in the experiment on RXF 393 renal, with MDA-MB-435, with OVCAR-3 ovarian and in the experiment with SW-620 colon was > 100 µM in each case. Further, the TGI in the experiment on CAKI-1 renal and in the experiment on TK-10 renal was > 100 µM each time.

For `CCN(CC)CCCOc1cc2c(cc1OC)C(=O)N1CCC[C@H]1C=N2`, the TGI with K-562 leukemia was > 100 µM; in the experiment on HCT-15 colon it was > 100 µM; in the experiment with RXF 393 renal it was 60 µM; in the experiment with MDA-MB-435, 59.6 µM; in the experiment on OVCAR-3 ovarian, 50 µM; with SW-620 colon, 33.2 µM. Besides, the TGI in the experiment on NCI-H522 lung is 54 µM; with CAKI-1 renal it was 44.3 µM; in the experiment on TK-10 renal, > 100 µM.

Consider `Clc1c(C(Cl)(Cl)Cl)nsc1N1CCCCC1`, for which the TGI in the experiment on K-562 leukemia was 53.2 µM; with HCT-15 colon, 79.9 µM; in the experiment with RXF 393 renal, 32.3 µM; in the experiment on MDA-MB-435, 66.1 µM; in the experiment with OVCAR-3 ovarian it was 56.9 µM; with SW-620 colon, > 100 µM. The TGI in the experiment on CAKI-1 renal is 55.2 µM; with TK-10 renal, > 100 µM.

On to `O=C(OCc1ccccc1)N1CCN(C(=O)OCc2ccccc2)CCN(C(=O)OCc2ccccc2)CCN(C(=O)OCc2ccccc2)CCN(C(=O)OCc2ccccc2)CC1`, for which the TGI in the experiment with HCT-15 colon, with MDA-MB-435, with OVCAR-3 ovarian, in the experiment on SW-620 colon, in the experiment on NCI-H522 lung and with CAKI-1 renal was > 100 µM each time. Also, the TGI in the experiment on T-47D breast and in the experiment with TK-10 renal was > 100 µM throughout.

For the compound `C=C1C(=O)O[C@@H]2[C@H](O)[C@@H](C)[C@@H]3C=CC(=O)[C@@]3(C)[C@H](OC(=O)C=C(C)C)[C@H]12`, the TGI came out at 0.518 µM with K-562 leukemia; 0.667 µM in the experiment with HCT-15 colon; 1.33 µM in the experiment with RXF 393 renal; 2.15 µM with OVCAR-3 ovarian; 1.18 µM with SW-620 colon; 0.4 µM in the experiment with NCI-H522 lung. In the experiment on CAKI-1 renal, this compound returned a TGI of 1.74 µM.

As to `O=C1CCCC2=C1CC1=C(CCCC1=O)N2c1ccccc1`, the TGI in the experiment on K-562 leukemia, in the experiment on HCT-15 colon, in the experiment with RXF 393 renal, in the experiment with OVCAR-3 ovarian, in the experiment with SW-620 colon and with CAKI-1 renal was > 100 µM each time. Moreover, the TGI in the experiment on TK-10 renal was > 100 µM.
